In one data set the target is T1, PPARγ-RXRα heterodimer (Homo sapiens, UniProt P37231).
T1 construct: expressed in transfected cells; host or cells: CHO-K1 (PPARγ:RXRα:4ERPP/CHO-K1)
T1 sequence (P37231 1-477 isoform P37231-2): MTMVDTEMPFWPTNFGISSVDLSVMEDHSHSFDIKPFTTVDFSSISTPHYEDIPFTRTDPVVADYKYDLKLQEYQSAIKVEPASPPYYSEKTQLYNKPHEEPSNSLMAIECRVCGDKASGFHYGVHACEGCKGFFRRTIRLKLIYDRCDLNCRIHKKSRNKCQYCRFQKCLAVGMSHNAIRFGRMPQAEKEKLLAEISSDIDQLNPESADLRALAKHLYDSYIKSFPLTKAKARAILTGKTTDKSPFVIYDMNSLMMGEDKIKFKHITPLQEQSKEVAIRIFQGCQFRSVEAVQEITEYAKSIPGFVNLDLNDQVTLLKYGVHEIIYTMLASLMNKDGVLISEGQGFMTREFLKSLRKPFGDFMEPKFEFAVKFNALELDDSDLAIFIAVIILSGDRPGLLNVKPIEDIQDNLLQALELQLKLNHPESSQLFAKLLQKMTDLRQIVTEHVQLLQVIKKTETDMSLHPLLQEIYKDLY
T1 sequence (P19793 1-462 partner): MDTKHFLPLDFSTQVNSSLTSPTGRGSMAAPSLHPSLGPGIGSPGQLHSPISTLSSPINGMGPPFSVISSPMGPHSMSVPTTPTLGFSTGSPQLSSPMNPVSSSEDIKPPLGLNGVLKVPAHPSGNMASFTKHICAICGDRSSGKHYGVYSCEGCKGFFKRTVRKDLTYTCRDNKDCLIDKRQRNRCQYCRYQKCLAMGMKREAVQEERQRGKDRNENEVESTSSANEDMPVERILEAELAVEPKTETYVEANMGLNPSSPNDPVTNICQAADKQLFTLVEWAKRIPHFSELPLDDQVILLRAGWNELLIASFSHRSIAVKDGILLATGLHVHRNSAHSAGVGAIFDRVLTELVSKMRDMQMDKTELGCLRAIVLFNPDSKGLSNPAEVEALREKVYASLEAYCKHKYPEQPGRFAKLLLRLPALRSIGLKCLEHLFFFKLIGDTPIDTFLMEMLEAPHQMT
As to the kind of experiment: PPARγ-RXRα heterodimer ligand activity (luciferase reporter, PPARγ:RXRα:4ERPP/CHO-K1 cells). The settings on record: concentration showing 50% of the maximum luciferase induction rate; CHO-K1 reporter cells, one day incubation. It counts as cell-based. As to the method:
The PPARγ:RXRα:4ERPP/CHO-K1 cells described in WO03/099793 were cultured in a Ham F12 medium [manufactured by Life Technologies, Inc., US] containing 10% calf fetal serum [manufactured by Life Technologies, Inc., US], sown in a 96-well white plate (manufactured by Corning Coster Corporation, US] at 1×10^4 cells/well, and incubated overnight in a carbon dioxide gas incubator at 37° C.
Then, the medium was removed from the 96 well white plate, 45 μl of Ham F12-medium containing 0.1% fatty acid-free bovine serum albumin (BSA) and a test compound (5 μl) were added, and the cells were incubated for one day in a carbon dioxide gas incubator at 37° C. The medium was removed, 20 μl of PicaGene 7.5 (manufactured by Wako Pure Chemical Industries, Ltd.) 2-fold diluted with HBSS (HANKS' BALANCED SALT SOLUTION) [manufactured by BIO WHITTAKER, US] was added. After stirring, the luciferase activity was determined using the 1420 ARVO Multilabel Counter [manufactured by PerkinElmer, US].
The induction rate was calculated from the luciferase activity of each test compound based on the luciferase activity of the test compound non-administration group as 1. The test compound concentration and the induction rate were analyzed by PRISM [manufactured by GraphPad Software, Inc., US] to calculate EC50 value (compound concentration showing 50% of the maximum value of induction rate) of the test compound.
(In general: A reporter such as luciferase makes a cellular process visible.)

The next data set concerns KKAy mice. As to the kind of experiment: Blood glucose and blood lipid (triglyceride) lowering action in mice. The format is in vivo. The settings on record: Mus musculus, 4TO7, po, 0.03% in powder diet, 4 to 7 days. From the text: The test compound was mixed with a powder diet (CE-2, CLEA JAPAN, INC.) at a proportion of 0.01% (0.03% for the compounds of Examples 1, 2, 12, 81, 94, 96, 129 and 143, and 0.005% for the compounds of Examples 28, 30 and 37) and freely given to KKAy mice (9 to 14-week-old, 5 mice per group) which are obesity non-insulin-dependent diabetes (type-2 diabetes) models, for 4 to 7 days. During this period, water was freely given. The blood was drawn from the orbital venous plexus. Glucose and triglyceride in the plasma separated from the blood were quantitated using L Type Wako Glu2 (Wako Pure Chemical Industries, Ltd.) and L Type Wako TG·H (Wako Pure Chemical Industries, Ltd.), respectively, according to an enzyme method.

SMILES strings stand for the structures. Read-outs that look alike come from different tables or passages of the source.

In the case of `CCCCCS(=O)(=O)NC(=O)CCc1ccc(OCC(=O)N(CC)CC)cc1Oc1ncc(C(F)(F)F)cc1Cl` [Example 44, 3-{2-{[3-chloro-5-(trifluoromethyl)pyridin-2-yl]oxy}-4-[2-(diethylamino)-2-oxoethoxy]phenyl}-N-(pentylsulfonyl)propanamide], on PPARγ-RXRα heterodimer, the EC50 – broadly, the midpoint of the concentration-response curve – came out at 0.0069 µM. This counts as single-digit nanomolar.

Consider `CCCCCS(=O)(=O)NC(=O)/C(C)=C/c1ccc(OCCCOC)cc1Oc1ncc(Cl)cc1Cl` [Example 190, (2E)-3-[2-[(3,5-dichloropyridin-2-yl)oxy]-4-(3-methoxypropoxy)phenyl]-2-methyl-N-(pentylsulfonyl)acrylamide], for which the melting point (commonly the temperature, or range, at which the solid turns liquid) lay in the range of 116 to 116.8 °C. In addition, a half-maximal response at PPARγ-RXRα heterodimer (EC50) required 0.015 µM.

With `COCCOc1ccc(CCCOC(=O)NS(=O)(=O)N2Cc3ccccc3C2)c(Oc2ncc(C(F)(F)F)cc2Cl)c1` [Example 371, 3-[2-{[3-chloro-5-(trifluoromethyl)pyridin-2-yl]oxy}-4-(2-methoxyethoxy)phenyl]propyl (1,3-dihydro-2H-isoindol-2-ylsulfonyl)carbamate], the concentration giving a half-maximal response (EC50) at PPARγ-RXRα heterodimer was determined as 0.0047 µM.

On PPARγ-RXRα heterodimer, `CCCCCS(=O)(=O)NC(=O)C(C)Cc1ccc(OCCOC)cc1Oc1ncc(C(F)(F)F)cc1Cl` (stereo not shown) [Example 209, 3-[2-{[3-chloro-5-(trifluoromethyl)pyridin-2-yl]oxy}-4-(2-methoxyethoxy)phenyl]-2-methyl-N-(pentylsulfonyl)propanamide] returned an EC50 of 0.0023 µM.

For the compound `COCCOc1ccc(CCCOC(=O)NS(=O)(=O)NCCc2ccccn2)c(Oc2ncc(Cl)cc2Cl)c1` [Example 427, 3-[2-[(3,5-dichloropyridin-2-yl)oxy]-4-(2-methoxyethoxy)phenyl]propyl {[(2-pyridin-2-ylethyl)amino]sulfonyl}carbamate], the concentration giving a half-maximal response (EC50) on PPARγ-RXRα heterodimer stood at 0.022 µM. This EC50 lies about 9.6-fold higher than the previous one.

In the case of `CCCCCS(=O)(=O)NC(=O)/C=C/c1ccc(OC(C)C)cc1Oc1ncc(C(F)(F)F)cc1Cl` [Example 13, (2E)-3-[2-{[3-chloro-5-(trifluoromethyl)pyridin-2-yl]oxy}-4-isopropoxyphenyl]-N-(pentylsulfonyl)acrylamide], a half-maximal response at PPARγ-RXRα heterodimer (EC50) required 0.026 µM.

`CCCCCNS(=O)(=O)NC(=O)/C(C)=C/c1ccc(OC(C)C)cc1Oc1ncc(C(F)(F)F)cc1Cl` [Example 224, (2E)-3-(2-{[3-chloro-5-(trifluoromethyl)pyridin-2-yl]oxy}-4-isopropoxyphenyl)-2-methyl-N-[(pentylamino)sulfonyl]acrylamide]: the melting point lay within 137.8 to 138.5 °C. Further, the 50% effective concentration (EC50) on PPARγ-RXRα heterodimer worked out at 0.016 µM.

`CCCCCS(=O)(=O)NC(=O)OCc1ccc(OS(=O)(=O)CCC)cc1Oc1ncc(C(F)(F)F)cc1Cl` [Example 64, 3-{[3-chloro-5-(trifluoromethyl)pyridin-2-yl]oxy}-4-[({[(pentylsulfonyl)amino]carbonyl}oxy)methyl]phenyl propane-1-sulfonate] registered a melting point of 86 to 89 °C. This compound registered an EC50 on PPARγ-RXRα heterodimer of 0.0087 µM.

The compound `CCCCCS(=O)(=O)NC(=O)/C=C/c1cc(OC(C)C)nn1Cc1ccc(C(F)(F)F)cc1Cl` [Example 111, (2E)-3-{1-[2-chloro-4-(trifluoromethyl)benzyl]-3-isopropoxy-1H-pyrazol-5-yl}-N-(pentylsulfonyl)acrylamide] gave a concentration giving a half-maximal response (EC50) on PPARγ-RXRα heterodimer of 0.0093 µM.

`C/C(=C\c1ccc(OC(C)C)cc1Oc1ncc(C(F)(F)F)cc1Cl)C(=O)NS(=O)(=O)NCCc1cccs1` [Example 225, (2E)-3-(2-{[3-chloro-5-(trifluoromethyl)pyridin-2-yl]oxy}-4-isopropoxyphenyl)-2-methyl-N-({[2-(2-thienyl)ethyl]amino}sulfonyl)acrylamide]: the melting point was 130 to 131 °C. This compound registered an EC50 at PPARγ-RXRα heterodimer of 0.016 µM.

`CCCCCS(=O)(=O)NC(=O)CCc1ccc(OCCN2CCCC2=O)cc1Oc1ncc(C(F)(F)F)cc1Cl` [Example 47, 3-{2-{[3-chloro-5-(trifluoromethyl)pyridin-2-yl]oxy}-4-[2-(2-oxopyrrolidin-1-yl)ethoxy]phenyl}-N-(pentylsulfonyl)propanamide] showed an EC50 at PPARγ-RXRα heterodimer of 0.0034 µM.

`CCCCCS(=O)(=O)NC(=O)/C=C/c1cc(OC(C)C)nn1Cc1ncc(C(F)(F)F)cc1Cl` [Example 199, (2E)-3-(1-{[3-chloro-5-(trifluoromethyl)pyridin-2-yl]methyl}-3-isopropoxy-1H-pyrazol-5-yl)-N-(pentylsulfonyl)acrylamide] showed a 50% effective concentration (EC50) at PPARγ-RXRα heterodimer of 0.013 µM.

On to `CCCCCS(=O)(=O)NC(=O)/C=C/c1ccc(OCCC(C)(C)O)cc1Oc1ncc(C(F)(F)F)cc1Cl` [Example 248, (2E)-3-[2-{[3-chloro-5-(trifluoromethyl)pyridin-2-yl]oxy}-4-(3-hydroxy-3-methylbutoxy)phenyl]-N-(pentylsulfonyl)acrylamide], for which the melting point fell in the range of 135.5 to 136 °C. Moreover, on PPARγ-RXRα heterodimer, the response was half-maximal at 0.018 µM (EC50).

In turn, `C/C(=C\c1ccc(OC(C)C)cc1Oc1ncc(C(F)(F)F)cc1Cl)C(=O)NS(=O)(=O)NC1CCC(C)CC1` (stereo not shown) [Example 223, (2E)-3-(2-{[3-chloro-5-(trifluoromethyl)pyridin-2-yl]oxy}-4-isopropoxyphenyl)-2-methyl-N-{[(4-methylcyclohexyl)amino]sulfonyl}acrylamide] showed a melting point of 176.8 to 177.2 °C. The compound further displayed an EC50 at PPARγ-RXRα heterodimer of 0.055 µM.

Take `CCCCCS(=O)(=O)NC(=O)CCc1ccc(OCCCOCCOC)cc1Oc1ncc(C(F)(F)F)cc1Cl` [Example 255, 3-{2-{[3-chloro-5-(trifluoromethyl)pyridin-2-yl]oxy}-4-[3-(2-methoxyethoxy)propoxy]phenyl}-N-(pentylsulfonyl)propanamide]: the melting point lay within 95 to 95.8 °C. In addition, at PPARγ-RXRα heterodimer, the concentration giving a half-maximal response (EC50) was found to be 0.0039 µM.

As to `CCCCCS(=O)(=O)NC(=O)CCc1ccc(OCCOC)cc1OCc1nc(-c2ccccc2)oc1C` [Example 173, 3-{4-(2-methoxyethoxy)-2-[(5-methyl-2-phenyl-1,3-oxazol-4-yl)methoxy]phenyl}-N-(pentylsulfonyl)propanamide], the melting point is 95.9 to 96.7 °C. The compound also displayed an EC50 at PPARγ-RXRα heterodimer of 0.0098 µM.

As for `CCCCCS(=O)(=O)NC(=O)/C=C/c1ccc(OCCCC#N)cc1Oc1ncc(C(F)(F)F)cc1Cl` [Example 451, (2E)-3-[2-{[3-chloro-5-(trifluoromethyl)pyridin-2-yl]oxy}-4-(3-cyanopropoxy)phenyl]-N-(pentylsulfonyl)acrylamide], on PPARγ-RXRα heterodimer, the concentration for a half-maximal effect (EC50) worked out at 0.015 µM.

Compound `CCCCCS(=O)(=O)NC(=O)/C=C/c1ccc(OCCCOC)cc1Oc1ncc(C(F)(F)F)cc1Cl` [Example 251, (2E)-3-[2-{[3-chloro-5-(trifluoromethyl)pyridin-2-yl]oxy}-4-(3-methoxypropoxy)phenyl]-N-(pentylsulfonyl)acrylamide] yielded an EC50 at PPARγ-RXRα heterodimer of 0.0074 µM.

As for `CCCCCS(=O)(=O)NC(=O)CCc1cc(OC(C)C)nn1Cc1ccc(C(F)(F)F)cc1Cl` [Example 143, 3-{1-[2-chloro-4-(trifluoromethyl)benzyl]-3-isopropoxy-1H-pyrazol-5-yl}-N-(pentylsulfonyl)propanamide], the response vs control in vivo at 0.03 % turned out to be 47% in the data set with KKAy mice (plasma glucose relative to non-administration group = 100%, read-out: hypoglycemic action (%)) and 76% with KKAy mice (plasma triglyceride relative to non-administration group = 100%, read-out: hypolipidemic action (%)).

These data come from patent publication US20100041892A1, “Therapeutic agent for diabetes” (priority 2005, published 2010).
